The source of these data is patent publication US11414442B2, “ARF6 inhibitors and related methods” (Navigen, Inc., priority 2017, dated 2022).

Data set [1] concerns LPS-induced acute lung injury (ALI). The experiment in a line: Mouse model of LPS-induced ALI, BALF cell count and BALF protein. Format: in vivo. Here is the method:
LPS was instilled into the trachea of anesthetized mice. […] The efficacy endpoints were total cell counts and total protein in BALF. All studies were conducted using vehicle negative controls and dexamethasone (5 mg/kg IP at T=0 and 6) as a positive control. Data were analyzed by 1-way ANOVA followed by Tukey's multiple comparison test (GRAPHPAD PRISM® software, version 6.05). […] Reductions in BALF total protein were also observed. […]

The nature of data set [2]: Solubility of ARF6 prodrugs in various vehicles (Table 4). The format is physicochemical.
The next data set in a line: Aqueous solubility. To be noted: acidic aqueous media, aqueous buffer.
For another data set, the system named is Plasmodium berghei ANKA. The experiment in a line: Mouse model of cerebral malaria. To be noted: NAV-B 42.75 mg/kg IP daily for 11 days from day 3; 14 days post-infection; dihydrochloride.
Data set [3] in a line: Solubility in water and PBS pH 7.4 (Tables 1 and 2). The format is physicochemical. To be noted: Table 1.
For another data set, the target named is ARF6 (Homo sapiens, UniProt P62330). Kind of data set: ARF6 inhibition, biochemical fluorometric nucleotide exchange assay. The source says: These ARF6 inhibitors were discovered using a high-throughput biochemical, fluorometric nucleotide exchange assay to screen 100,000 compounds from a commercially available compound library. Medicinal chemistry optimization efforts have also been conducted. In some embodiments, the clinical potential of the discovered small molecule ARF6 inhibitors can be limited by poor solubility. Accordingly, the synthesis and development of water soluble prodrugs of ARF6 inhibitors can be advantageous. […]
Sequence of ARF6 (P62330 whole entry, species assumed): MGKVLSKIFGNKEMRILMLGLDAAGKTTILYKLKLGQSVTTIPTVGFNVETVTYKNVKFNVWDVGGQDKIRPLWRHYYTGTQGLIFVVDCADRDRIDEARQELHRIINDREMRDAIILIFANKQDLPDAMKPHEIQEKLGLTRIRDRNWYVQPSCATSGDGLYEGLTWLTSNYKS

For data set [4], the system named is Acinetobacter baumannii (AB) HUMC1. The format is in vivo, mouse. To be noted: NAV-B 42.75 mg/kg IP once daily for 7 days (equivalent to NAV-A 30 mg/kg), normal saline vehicle. Here is the method:
Briefly, CD-1 male mice were made neutropenic with 200 mg/kg cyclophosphamide and 250 mg/kg cortisone acetate (in 0.05% Tween 80) on Days −2 and +3. On Day 0, neutropenic mice were infected with Acinetobacter baumannii (AB) HUMC1 (virulent strain; see Luo G, et al. J Antimicrob Chemother. 2012; 67:1439-45 and Luo G, et al. PloS one. 2012; 7:e29446) via inhalation. Treatment with “NAV-” compound was initiated at three hours post infection.
Mice can be made neutropenic by injecting them with cyclophosphamide (200 mg/kg IP) and cortisone acetate (250 mg/kg, subcutaneously) on day −2 and +3 relative to infection. To induce AB pneumonia, neutropenic mice can be infected by aerosolizing AB into an inhalational chamber for one hour through a nebulizer as previously described (see Luo G, et al. J Antimicrob Chemother. 2012; 67:1439-45). Dosing and frequency of treatment can be dictated by the PK and ALI studies conducted in Example 6. Placebo mice can receive vehicle. […] Treatment can begin three hours after infection and continue through Day +7, and survival of mice (the primary endpoint) can be followed for 28 days post-infection. Each group may comprise 10 mice and each experiment may be repeated once (for a total of 20 mice per treatment group) to detect a three-day difference in survival by the Log Rank test (α=0.05).

Where “and” joins values, the source holds several entries; their conditions need not be identical. Equal entries are not always repeated. Entries after “also recorded” stand apart in the source; their conditions may differ. Structures can show the parent of a compound that is named as a salt. Where two headings read alike, the source gives them in different places.

Source text for Plasmodium berghei ANKA: Mice were infected with Plasmodium berghei ANKA on day 0. Treatment was initiated on day 3. […] Surviving mice were sacrificed on day 14.

Usually solubility stands for how much of the substance goes into solution per volume. The IC50 is the concentration at which inhibition is half-maximal. `NCCCC[C@H](N)C(=O)Oc1cc([N+](=O)[O-])ccc1-c1cc(=O)[nH]c2c(-c3ccc(Cl)cc3)c(Cc3ccccc3)nn12` [NAV-B, [2-[2-benzyl-3-(4-chlorophenyl)-5-oxo-4H-pyrazolo[1,5-a]pyrimidin-7-yl]-5-nitro-phenyl] (2S)-2,6-diaminohexanoate dihydrochloride]: the “concentration of cells in BALF” value in data set [1] (NAV-B 42.75 mg/kg IP) is recorded as “significant effect”. In addition, the “concentration of protein in BALF” value in data set [1] (NAV-B 42.75 mg/kg IP) is “significant effect”. In addition, in data set [1] (NAV-B 42.75 mg/kg IP at T=0 (equivalent to 30 mg/kg NAV-A), FIG. 10A marks a and b, dihydrochloride), the “reduction in LPS-induced BALF cell count” value is 62% and 100%. Besides, in data set [1] (NAV-B 43 mg/kg IP at T=0), the “reduction in BALF cell count” value was 70%. Further, the solubility in data set [2] (20 mM Na citrate buffer, pH 3.1, aqueous buffer, kinetic from dmso stock, diluted from 10 mM solution in DMSO, read-out: Solubility (μM) 20 mM Na Citrate, pH 3.1) was 280 µM; in data set [2] (0.1% Tween 80 in D5W, aqueous with cosolvent or surfactant or cyclodextrin, kinetic from dmso stock, diluted from 10 mM solution in DMSO, read-out: Solubility (μM) 0.1% Tween 80 in D5W), 42 µM; in data set [2] (DPBS, pH 7.4, aqueous buffer, kinetic from dmso stock, diluted from 10 mM solution in DMSO, read-out: Solubility (μM) DPBS, pH 7.4), 1 µM; in data set [2] (saline or isotonic, thermodynamic from solid, D5W, prepared from powder, read-out: Solubility (μM) D5W Prepared from powder) it was 14000 µM; in data set [2] (water, kinetic from dmso stock, diluted from 10 mM solution in DMSO, read-out: Solubility (μM) H2O) it was 400 µM; in the data set “Aqueous solubility”, more than 50 mg/mL. The solubility in data set [3] (water, read-out: Solubility Water) came to 425 µM; in data set [3] (aqueous buffer, PBS pH 7.4, read-out: Solubility PBS pH 7.4) it was 1.7 µM. The “survival of malaria-infected mice” value in the data set on Plasmodium berghei ANKA is “reduced mortality; also recorded: significant improvement in survival”. Besides, the IC50 on ARF6 (Table 1, read-out: ARF6 IC50) was 2600 nM; on ARF6 (Table 4, read-out: ARF6 inhibition IC50), 2600 nM. The survival in data set [4] stood at 90%.
